Series [1] in a line: Plasma clearance in orally dosed rat. It counts as ADME, organism-based. The following applies: po.
The target in series [2] is 5-hydroxytryptamine receptor 2B (Homo sapiens, UniProt P41595). Nature of the series: Binding affinity to human 5HT2B receptor.
The target of series [3] is T1, 5-hydroxytryptamine receptor 2C (Homo sapiens, UniProt P28335).
T1 sequence (P28335 whole entry): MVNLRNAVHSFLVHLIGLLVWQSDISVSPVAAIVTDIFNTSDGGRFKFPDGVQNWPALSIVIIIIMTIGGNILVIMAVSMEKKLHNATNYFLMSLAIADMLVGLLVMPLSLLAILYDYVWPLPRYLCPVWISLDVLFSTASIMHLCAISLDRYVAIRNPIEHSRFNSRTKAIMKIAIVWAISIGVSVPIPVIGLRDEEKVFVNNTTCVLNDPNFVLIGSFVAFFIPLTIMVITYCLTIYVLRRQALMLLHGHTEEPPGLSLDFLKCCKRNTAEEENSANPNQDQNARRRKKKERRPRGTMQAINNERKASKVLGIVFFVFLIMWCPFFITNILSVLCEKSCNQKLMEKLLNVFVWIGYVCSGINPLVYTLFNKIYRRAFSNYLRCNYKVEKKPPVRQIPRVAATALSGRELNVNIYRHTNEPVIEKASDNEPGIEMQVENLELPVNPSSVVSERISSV
Nature of the series: Binding affinity to human 5HT2C receptor.

Series [4] addresses 5-hydroxytryptamine receptor 2A (Homo sapiens, UniProt P28223). Nature of the series: Binding affinity to human 5HT2A receptor.
Series [5] is described as follows: Ratio of drug level in brain against plasma in orally dosed rat. Format: ADME, organism-based. The following applies: po, read-out: BPR.
The nature of series [6]: Bioavailability in orally dosed rat. Format: ADME, organism-based. The note with it: in vivo, po.
For series [7], the target named is Beta-2 adrenergic receptor (Homo sapiens) (UniProt P07550). Nature of the series: Binding affinity to human adrenergic beta-2 receptor.
In a further series the target is D(3) dopamine receptor (Homo sapiens, UniProt P35462). Nature of the series: Binding affinity to human dopamine D3 receptor.
Series [8] addresses T2, 5-hydroxytryptamine receptor 1A (Homo sapiens, UniProt P08908).
T2 sequence (P08908 whole entry): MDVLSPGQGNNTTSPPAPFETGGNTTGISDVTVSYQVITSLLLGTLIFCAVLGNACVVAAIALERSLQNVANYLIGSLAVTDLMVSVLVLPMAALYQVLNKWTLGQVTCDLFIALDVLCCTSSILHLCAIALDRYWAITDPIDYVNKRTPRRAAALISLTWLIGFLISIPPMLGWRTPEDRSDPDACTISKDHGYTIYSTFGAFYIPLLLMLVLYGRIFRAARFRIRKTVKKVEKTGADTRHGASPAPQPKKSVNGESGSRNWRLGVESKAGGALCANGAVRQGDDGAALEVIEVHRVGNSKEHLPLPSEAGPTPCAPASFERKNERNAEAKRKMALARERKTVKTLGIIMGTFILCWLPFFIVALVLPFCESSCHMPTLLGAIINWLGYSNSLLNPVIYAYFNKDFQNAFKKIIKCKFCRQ
Nature of the series: Binding affinity to human 5HT1A receptor.

For series [9], the target named is 5-hydroxytryptamine receptor 6 (Homo sapiens, UniProt P50406). Nature of the series: Binding affinity to human 5HT6 receptor.
For series [10], the system named is Rattus norvegicus. Nature of the series: Volume of distribution in orally dosed rat. It counts as ADME, organism-based. The following applies: in vivo, po.
The target in series [11] is T3, Adrenergic receptor alpha-1 (Homo sapiens, UniProt P35348+P25100+P35368).
T3 sequence (P35348 whole entry): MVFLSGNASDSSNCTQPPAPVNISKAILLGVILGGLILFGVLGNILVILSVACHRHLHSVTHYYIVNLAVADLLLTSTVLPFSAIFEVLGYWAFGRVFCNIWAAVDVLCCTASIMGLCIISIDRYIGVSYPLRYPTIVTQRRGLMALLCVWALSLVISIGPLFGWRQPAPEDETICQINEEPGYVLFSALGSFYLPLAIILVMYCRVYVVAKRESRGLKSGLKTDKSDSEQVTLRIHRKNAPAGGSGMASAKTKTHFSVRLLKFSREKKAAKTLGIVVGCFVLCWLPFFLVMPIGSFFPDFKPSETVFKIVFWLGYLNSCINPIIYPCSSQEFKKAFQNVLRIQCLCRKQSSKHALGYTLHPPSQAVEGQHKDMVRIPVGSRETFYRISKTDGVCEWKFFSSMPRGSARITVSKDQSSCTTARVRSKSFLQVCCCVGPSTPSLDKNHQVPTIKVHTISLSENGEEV
T3 sequence (P25100 whole entry): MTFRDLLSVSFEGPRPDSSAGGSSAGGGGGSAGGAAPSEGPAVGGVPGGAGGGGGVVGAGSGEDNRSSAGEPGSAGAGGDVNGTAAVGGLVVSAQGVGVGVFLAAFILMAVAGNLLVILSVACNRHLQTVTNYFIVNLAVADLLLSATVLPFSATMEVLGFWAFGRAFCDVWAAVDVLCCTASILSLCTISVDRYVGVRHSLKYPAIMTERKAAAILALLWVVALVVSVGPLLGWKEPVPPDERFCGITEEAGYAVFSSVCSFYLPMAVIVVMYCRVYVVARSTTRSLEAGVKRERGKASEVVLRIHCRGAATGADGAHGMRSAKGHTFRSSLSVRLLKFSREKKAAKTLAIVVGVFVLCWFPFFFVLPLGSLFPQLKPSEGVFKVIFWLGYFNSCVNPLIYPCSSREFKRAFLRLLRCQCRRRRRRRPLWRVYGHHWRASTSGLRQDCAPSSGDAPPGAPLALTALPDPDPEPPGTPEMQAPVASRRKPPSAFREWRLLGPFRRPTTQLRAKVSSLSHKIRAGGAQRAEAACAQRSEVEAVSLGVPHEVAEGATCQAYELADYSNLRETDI
T3 sequence (P35368 whole entry): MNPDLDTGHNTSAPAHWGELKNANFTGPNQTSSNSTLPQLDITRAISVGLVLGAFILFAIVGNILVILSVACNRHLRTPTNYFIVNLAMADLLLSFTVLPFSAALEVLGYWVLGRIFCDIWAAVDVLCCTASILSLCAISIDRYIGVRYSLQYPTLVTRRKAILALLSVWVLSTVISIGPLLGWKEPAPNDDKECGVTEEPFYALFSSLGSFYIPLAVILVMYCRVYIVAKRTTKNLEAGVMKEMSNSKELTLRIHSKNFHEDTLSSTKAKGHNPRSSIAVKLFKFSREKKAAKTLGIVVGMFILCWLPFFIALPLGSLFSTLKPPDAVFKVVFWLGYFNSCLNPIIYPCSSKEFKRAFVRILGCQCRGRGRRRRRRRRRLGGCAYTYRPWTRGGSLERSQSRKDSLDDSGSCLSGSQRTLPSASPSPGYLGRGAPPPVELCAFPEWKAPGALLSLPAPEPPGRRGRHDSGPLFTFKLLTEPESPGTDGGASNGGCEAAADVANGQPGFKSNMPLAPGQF
Briefly: Binding affinity to human adrenergic alpha-1 receptor. Format: protein assay.

In series [12] the target is D(2) dopamine receptor (Homo sapiens) (UniProt P14416). Briefly: Binding affinity to human dopamine D2 receptor.
The test system of series [13] is Rattus norvegicus. Nature of the series: Drug level in orally dosed rat brain. Format: ADME, organism-based. The note with it: in vivo, po.
Series [14] deals with 5-hydroxytryptamine receptor 1D (Homo sapiens, UniProt P28221). Nature of the series: Binding affinity to human 5HT1D receptor.
Series [15] addresses 5-hydroxytryptamine receptor 7 (Homo sapiens, UniProt P34969). Briefly: Binding affinity to human 5HT7 receptor.
For series [16], the target named is 5-hydroxytryptamine receptor 1B (Homo sapiens, UniProt P28222). Nature of the series: Binding affinity to human 5HT1B receptor.
The nature of series [17]: Half life in orally dosed rat. Format: ADME, organism-based. The note with it: in vivo, po.

Each structure is given as a SMILES string. Activity calls are given as the source filed them. No cut-off for these calls is given here.

Chain of 5-hydroxytryptamine receptor 2A (P28223 whole entry): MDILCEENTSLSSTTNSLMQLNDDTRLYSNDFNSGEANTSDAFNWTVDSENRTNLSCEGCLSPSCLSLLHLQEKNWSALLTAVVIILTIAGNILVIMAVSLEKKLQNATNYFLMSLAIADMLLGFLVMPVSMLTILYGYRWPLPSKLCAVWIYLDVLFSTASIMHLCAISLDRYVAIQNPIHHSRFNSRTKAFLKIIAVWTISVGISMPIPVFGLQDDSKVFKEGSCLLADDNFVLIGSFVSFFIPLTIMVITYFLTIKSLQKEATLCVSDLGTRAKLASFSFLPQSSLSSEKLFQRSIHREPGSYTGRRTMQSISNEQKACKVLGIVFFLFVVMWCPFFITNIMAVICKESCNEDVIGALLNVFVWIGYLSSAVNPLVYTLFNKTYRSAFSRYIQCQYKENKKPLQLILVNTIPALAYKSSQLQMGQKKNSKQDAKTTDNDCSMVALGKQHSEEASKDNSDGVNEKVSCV
Chain of 5-hydroxytryptamine receptor 2B (P41595 whole entry): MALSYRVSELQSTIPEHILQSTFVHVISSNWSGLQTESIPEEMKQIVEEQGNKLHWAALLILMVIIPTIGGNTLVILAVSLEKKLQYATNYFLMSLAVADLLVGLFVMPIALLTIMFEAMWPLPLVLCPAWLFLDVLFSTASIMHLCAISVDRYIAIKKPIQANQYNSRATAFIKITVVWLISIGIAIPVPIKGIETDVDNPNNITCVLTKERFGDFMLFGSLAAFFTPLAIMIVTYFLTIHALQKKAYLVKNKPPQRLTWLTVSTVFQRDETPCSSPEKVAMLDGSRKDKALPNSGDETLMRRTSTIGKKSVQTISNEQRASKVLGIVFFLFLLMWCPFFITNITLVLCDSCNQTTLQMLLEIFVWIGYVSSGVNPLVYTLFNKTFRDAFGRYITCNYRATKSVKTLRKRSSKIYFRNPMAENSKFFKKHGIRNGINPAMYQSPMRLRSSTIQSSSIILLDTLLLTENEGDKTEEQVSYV
Chain of D(2) dopamine receptor (Homo sapiens) (P14416 whole entry): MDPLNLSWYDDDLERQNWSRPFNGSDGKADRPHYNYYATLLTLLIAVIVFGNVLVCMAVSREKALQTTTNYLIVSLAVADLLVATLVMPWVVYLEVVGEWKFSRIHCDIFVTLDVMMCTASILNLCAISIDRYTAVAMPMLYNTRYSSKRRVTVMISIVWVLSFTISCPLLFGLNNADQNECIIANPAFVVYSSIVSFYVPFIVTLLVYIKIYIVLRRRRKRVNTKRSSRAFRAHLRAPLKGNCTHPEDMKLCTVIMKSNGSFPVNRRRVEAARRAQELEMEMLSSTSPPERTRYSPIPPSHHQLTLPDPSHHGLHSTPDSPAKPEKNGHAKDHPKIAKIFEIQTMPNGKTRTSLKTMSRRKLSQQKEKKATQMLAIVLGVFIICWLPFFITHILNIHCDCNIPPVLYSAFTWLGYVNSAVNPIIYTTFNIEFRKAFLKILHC
Chain of 5-hydroxytryptamine receptor 1B (P28222 whole entry): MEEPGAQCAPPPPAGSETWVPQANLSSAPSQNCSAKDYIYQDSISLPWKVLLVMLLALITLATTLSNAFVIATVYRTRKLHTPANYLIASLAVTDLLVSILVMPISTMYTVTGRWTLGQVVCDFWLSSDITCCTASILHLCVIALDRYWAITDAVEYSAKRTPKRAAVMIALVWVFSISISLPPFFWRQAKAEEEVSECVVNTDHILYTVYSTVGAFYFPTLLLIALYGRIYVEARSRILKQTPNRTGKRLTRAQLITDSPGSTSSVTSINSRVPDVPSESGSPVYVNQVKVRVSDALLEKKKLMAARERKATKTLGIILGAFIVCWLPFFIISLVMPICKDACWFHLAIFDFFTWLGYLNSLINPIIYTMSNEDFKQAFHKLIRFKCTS
Chain of 5-hydroxytryptamine receptor 6 (P50406 whole entry): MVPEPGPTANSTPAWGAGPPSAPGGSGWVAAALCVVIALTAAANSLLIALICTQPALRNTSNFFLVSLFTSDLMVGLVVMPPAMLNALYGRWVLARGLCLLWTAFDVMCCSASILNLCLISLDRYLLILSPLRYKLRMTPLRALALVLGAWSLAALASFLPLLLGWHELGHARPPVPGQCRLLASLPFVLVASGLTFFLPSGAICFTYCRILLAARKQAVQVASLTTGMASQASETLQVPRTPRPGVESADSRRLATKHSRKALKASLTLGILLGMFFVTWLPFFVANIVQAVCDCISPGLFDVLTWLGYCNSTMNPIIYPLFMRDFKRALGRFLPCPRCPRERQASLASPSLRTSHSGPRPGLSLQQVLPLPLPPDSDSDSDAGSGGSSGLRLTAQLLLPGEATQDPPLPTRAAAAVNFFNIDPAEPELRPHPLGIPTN
Chain of D(3) dopamine receptor (P35462 whole entry): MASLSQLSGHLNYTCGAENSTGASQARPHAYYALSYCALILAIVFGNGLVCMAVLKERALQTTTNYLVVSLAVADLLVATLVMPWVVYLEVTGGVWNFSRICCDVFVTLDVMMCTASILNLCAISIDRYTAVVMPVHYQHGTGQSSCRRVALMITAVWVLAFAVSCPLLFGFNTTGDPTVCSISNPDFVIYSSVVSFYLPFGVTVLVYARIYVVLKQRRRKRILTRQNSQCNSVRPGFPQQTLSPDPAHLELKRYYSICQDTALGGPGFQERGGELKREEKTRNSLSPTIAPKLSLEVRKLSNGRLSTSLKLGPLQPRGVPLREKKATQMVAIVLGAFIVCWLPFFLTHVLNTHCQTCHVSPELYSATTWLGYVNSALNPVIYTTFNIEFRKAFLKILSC
Chain of 5-hydroxytryptamine receptor 1D (P28221 whole entry): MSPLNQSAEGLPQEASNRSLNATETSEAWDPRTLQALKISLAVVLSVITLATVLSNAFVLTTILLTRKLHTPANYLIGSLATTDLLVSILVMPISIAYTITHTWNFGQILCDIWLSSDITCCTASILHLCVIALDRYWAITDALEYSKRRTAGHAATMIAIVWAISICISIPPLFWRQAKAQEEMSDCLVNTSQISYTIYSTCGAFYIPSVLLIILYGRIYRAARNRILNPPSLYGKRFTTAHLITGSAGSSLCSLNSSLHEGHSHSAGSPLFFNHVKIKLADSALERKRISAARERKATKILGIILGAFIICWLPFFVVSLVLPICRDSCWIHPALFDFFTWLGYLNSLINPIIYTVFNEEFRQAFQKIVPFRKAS
Chain of Beta-2 adrenergic receptor (Homo sapiens) (P07550 whole entry, looked up): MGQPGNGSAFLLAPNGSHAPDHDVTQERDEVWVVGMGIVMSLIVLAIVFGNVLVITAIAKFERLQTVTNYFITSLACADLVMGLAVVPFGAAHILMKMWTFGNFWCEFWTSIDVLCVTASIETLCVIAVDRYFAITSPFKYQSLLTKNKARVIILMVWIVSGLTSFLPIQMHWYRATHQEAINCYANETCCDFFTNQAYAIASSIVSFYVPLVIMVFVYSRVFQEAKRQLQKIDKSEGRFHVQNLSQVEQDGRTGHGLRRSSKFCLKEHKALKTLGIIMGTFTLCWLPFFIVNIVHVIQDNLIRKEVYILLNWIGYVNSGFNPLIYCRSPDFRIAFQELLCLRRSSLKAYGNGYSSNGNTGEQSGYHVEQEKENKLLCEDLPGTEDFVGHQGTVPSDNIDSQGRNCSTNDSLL
Chain of 5-hydroxytryptamine receptor 7 (P34969 whole entry): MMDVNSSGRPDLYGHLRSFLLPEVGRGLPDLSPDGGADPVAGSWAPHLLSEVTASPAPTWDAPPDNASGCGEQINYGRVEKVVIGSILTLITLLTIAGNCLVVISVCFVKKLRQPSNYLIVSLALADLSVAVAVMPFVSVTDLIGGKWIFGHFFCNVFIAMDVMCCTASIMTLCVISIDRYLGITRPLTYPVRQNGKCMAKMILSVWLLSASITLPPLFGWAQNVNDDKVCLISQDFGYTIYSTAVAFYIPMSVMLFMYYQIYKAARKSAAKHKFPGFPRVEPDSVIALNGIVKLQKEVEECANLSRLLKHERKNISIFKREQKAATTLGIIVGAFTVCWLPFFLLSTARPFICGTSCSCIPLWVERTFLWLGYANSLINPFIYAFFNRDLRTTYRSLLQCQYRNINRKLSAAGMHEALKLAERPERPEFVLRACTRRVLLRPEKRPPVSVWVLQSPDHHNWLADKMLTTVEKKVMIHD

For the molecule `COc1ccc(N2CCC(C)(c3ccc(Cl)c(Cl)c3)C2=O)cc1OCCN1CCCCC1` (centres undefined), in series [1], the CL/F (in general, clearance divided by bioavailability, as obtained after extravascular dosing) was determined as 65 mL/min/kg. Besides, the values for the inhibition constant Ki in [2], in series [3] and in [4] were 1 µM, 0.00501 µM and 0.631 µM, respectively. Also, the Kp in series [5] stood at 5. Besides, the bioavailability (in general, the share of a dose that reaches the circulation, judged against a reference dose that is usually intravenous) in [6] was determined as 13%.

For `COc1ccc(N2CC=C(c3ccc(Cl)c(Cl)c3)C2=O)cc1OCCN1CCCCC1`, the result in series [7] and in series [12] was inactive. Moreover, the inhibition constant (Ki) (as a rule, the equilibrium dissociation constant of an inhibitor or competing ligand from its target) is 0.457 µM on D(3) dopamine receptor; above 3.16 µM in [8]; 0.631 µM in series [2]; above 3.16 µM in series [9]; 0.000794 µM in series [3]; 0.631 µM in series [4]. Moreover, the Ki in [14], in [15] and in series [16] was above 3.16 µM throughout. This molecule registered an apparent clearance CL/F in series [1] of 59 mL/min/kg. In addition, the Kp in series [5] was 3.9. In the series on Rattus norvegicus [10], this molecule showed a Vdss of 10.7 L. In addition, in series [11], the “Log Ki” value is on record as -5.74. Moreover, the Drug uptake in the series with Rattus norvegicus [13] came out at 320 ng/g. Besides, the half-life (as a rule, how long it takes for the measured level to halve) in series [17] was 2.8 h. The bioavailability in [6] was found to be 11%.

For `COc1ccc(N2CCC(C)(c3ccc(Cl)c(Cl)c3)C2=O)cc1OCCN1CCC(C)CC1` (centres undefined), in [1], the apparent clearance CL/F worked out at 20 mL/min/kg. Moreover, the inhibitory constant (Ki) is above 0.794 µM in series [2] and 0.00501 µM in series [3]. In series [4], this molecule showed a Log Ki above -6.3. The Kp in series [5] came out at 1.8. The same molecule gave a bioavailability in [6] of 50%.

With `COc1ccc(N2CC=C(c3ccc(Cl)c(Cl)c3)C2=O)cc1OCCN1CCC(C)CC1`, the CL/F in series [1] turned out to be 11 mL/min/kg. Besides, the Ki in series [2] was above 0.794 µM; in series [3], 0.00316 µM; in series [4], 0.794 µM. For the same molecule, the Kp in series [5] is 7.2. In addition, the Vdss with Rattus norvegicus [10] amounted to 4 L. Also, the Drug uptake with Rattus norvegicus [13] was determined as 1058 ng/g. The half-life in series [17] is 4.5 h. Also, the bioavailability in series [6] amounted to 52%.

The values above are taken from ChEMBL document CHEMBL1146011, “Diaryl substituted pyrrolidinones and pyrrolones as 5-HT2C inhibitors: synthesis and biological evaluation” (Bioorg Med Chem Lett, 2006).
